Among the data in ChEMBL document CHEMBL1208686, “Synthesis and antileishmanial activity of piperoyl-amino acid conjugates” (Eur J Med Chem, 2010) are Activity and IC50 values, retold here.

SMILES strings stand for the structures.

In data set [1] the test system is PBMC. The data set is described as follows: Cytotoxicity against human PBMC at IC50 concentration after 48 hrs by MTT assay. Type of data set: cell-based. (In general: Tetrazolium assays rely on reduction of a dye to a coloured formazan, in cell work by metabolically active cells.)
Data set [2] concerns PBMC. The data set is described as follows: Cytotoxicity against human PBMC at 2 times IC50 concentration after 48 hrs by MTT assay. Type of data set: cell-based.
Data set [3] deals with Leishmania donovani. The data set is described as follows: Antileishmanial activity against Leishmania donovani amastigotes after 48 hrs by MTT assay. It counts as functional, organism-based.
The subject of data set [4] is Leishmania donovani. The data set is described as follows: Antileishmanial activity against Leishmania donovani promastigotes after 48 hrs by MTT assay. Type of data set: functional, organism-based.
Data set [5] has as its system Leishmania donovani. The data set is described as follows: Antileishmanial activity against Leishmania donovani infected in golden Syrian hamsters assessed as reduction of spleen weight at 250 mg/kg, ip administered 20 days after infection for 10 days relative to control. It counts as functional. The arrangement: scale not given: the % may be the effect or the level left. As to conditions: route intraperitoneal.

Data set [6] relates to Leishmania donovani. The data set is described as follows: Antileishmanial activity against Leishmania donovani infected in golden Syrian hamsters assessed as reduction of spleen parasitic burden at 250 mg/kg, ip administered 20 days after infection for 10 days relative to control. It counts as functional. The arrangement: scale not given: the % may be the effect or the level left. As to conditions: route intraperitoneal.

Data set [7] relates to Leishmania donovani. The data set is described as follows: Antileishmanial activity against Leishmania donovani infected in golden Syrian hamsters assessed as reduction of spleen weight at 250 mg/kg, ip administered 20 days after infection for 10 days (reference value: 503 +/- 34 mg). It counts as functional. As to conditions: route intraperitoneal.
The test system of data set [8] is Leishmania donovani. The data set is described as follows: Antileishmanial activity against Leishmania donovani infected in golden Syrian hamsters assessed as reduction of spleen weight at 12.5 mg/kg, po administered 20 days after infection for 10 days (reference value: 503 +/- 34 mg). It counts as functional.
Data set [9] relates to Leishmania donovani. The data set is described as follows: Antileishmanial activity against Leishmania donovani infected in golden Syrian hamsters assessed as reduction of spleen parasitic burden at 12.5 mg/kg, po administered 20 days after infection for 10 days relative to control. The arrangement: scale not given: the % may be the effect or the level left. It counts as functional.

Data set [10] relates to Leishmania donovani. The data set is described as follows: Antileishmanial activity against Leishmania donovani infected in golden Syrian hamsters assessed as reduction of spleen weight at 12.5 mg/kg, po administered 20 days after infection for 10 days relative to control. It counts as functional. The arrangement: scale not given: the % may be the effect or the level left.

As usually defined, the IC50 is the concentration at which inhibition is half-maximal. As for `O=C(/C=C/C=C/c1ccc2c(c1)OCO2)NC(Cc1ccccc1)C(=O)O` (stereo unspecified), the figures for the Activity in data set [1] and in data set [2] were 1.2% and 8.5%, respectively. Also, the figures for the concentration for half-maximal inhibition (IC50) in [3] and in [4] were 256 µM and 927 µM, respectively.
Regarding `COC(=O)C(NC(=O)CCCCc1ccc2c(c1)OCO2)C(C)C` (stereo unspecified), the Activity is given as 4.5% in [1] and 7.7% in data set [2]. Further, the IC50 worked out at 240 µM in data set [3] and 722 µM in data set [4].
On to `O=C(O)/C=C/C=C/c1ccc2c(c1)OCO2` [PIPERIC ACID], for which the results for the Activity in data set [1] and in data set [2] were 4.5% and 8%, respectively. The IC50 was 395 µM in data set [3] and 1760 µM in data set [4].
For the compound `O=C(/C=C/C=C/c1ccc2c(c1)OCO2)NC(Cc1c[nH]c2ccccc12)C(=O)O` (stereo unspecified), the Activity in [1] amounted to 3.6%; in [2] it was 10%. Besides, the IC50 is 236 µM in data set [3] and 1020 µM in data set [4].
Regarding `COC(=O)C(CCSC)NC(=O)CCCCc1ccc2c(c1)OCO2` (stereo unspecified), the values for the Activity in data set [1] and in data set [2] were 3% and 5%, respectively. In addition, the IC50 turned out to be 221 µM in data set [3] and 607 µM in [4].
Turning to `CC(C)C(NC(=O)/C=C/C=C/c1ccc2c(c1)OCO2)C(=O)O` (stereo unspecified), the results for the Activity in data set [1] and in data set [2] were 5.5% and 9%, respectively. Also, the IC50 in data set [3] came out at 310 µM; in [4] it was 1030 µM.
With `COC(=O)[C@@H](N)CCSC`, the Activity in data set [1] is 1.5%; in data set [2], 7.3%. The results for the IC50 in data set [3] and in data set [4] were 1900 µM and 1930 µM, respectively.
For `COC(=O)C(Cc1ccc(O)cc1)NC(=O)CCCCc1ccc2c(c1)OCO2` (stereo unspecified), the Activity came out at 5% in data set [1] and 7.6% in data set [2]. The IC50 came to 202 µM in [3] and 536 µM in [4].
`COC(=O)C(Cc1ccc(O)cc1)NC(=O)/C=C/C=C/c1ccc2c(c1)OCO2` (stereo unspecified): the Activity was determined as 3.5% in data set [1] and 6% in data set [2]. Also, the IC50 in data set [3] is 210 µM; in data set [4] it was 791 µM.
For the compound `COC(=O)C(Cc1c[nH]c2ccccc12)NC(=O)CCCCc1ccc2c(c1)OCO2` (stereo unspecified), the results for the Activity in data set [1] and in [2] were 2.5% and 5%, respectively. Further, the IC50 was 176 µM in data set [3] and 473 µM in data set [4].
Consider `O=C(/C=C/C=C/c1ccc2c(c1)OCO2)N1CCCCC1` [PIPERINE], for which the Activity was 7% in data set [1] and 10% in [2]. Moreover, the figures for the IC50 in data set [3] and in data set [4] were 752 µM and 2560 µM, respectively.
With `COC(=O)[C@@H](N)Cc1c[nH]c2ccccc12` [TRYPTOPHAN METHYL ESTER], the Activity in [1] was 1.8%; in data set [2], 5.3%. Moreover, the IC50 in data set [3] is 1420 µM; in [4], 1370 µM.
Take `COC(=O)C(CCSC)NC(=O)/C=C/C=C/c1ccc2c(c1)OCO2` (stereo unspecified): the Activity is recorded as 4% in data set [1] and 7.5% in data set [2]. Also, the IC50 in data set [3] was 168 µM; in data set [4], 823 µM.
As to `COC(=O)[C@@H](N)C(C)C`, the Activity in data set [1] came out at 4%; in data set [2], 6%. Moreover, the figures for the IC50 in data set [3] and in [4] were 1760 µM and 2350 µM, respectively.
On to `COC(=O)C(Cc1ccccc1)NC(=O)CCCCc1ccc2c(c1)OCO2` (stereo unspecified), for which the Activity in data set [1] was 5.5%; in data set [2] it was 7.2%. Also, the IC50 worked out at 212 µM in data set [3] and 669 µM in data set [4].
`CSCCC(NC(=O)/C=C/C=C/c1ccc2c(c1)OCO2)C(=O)O` (stereo unspecified): the Activity in data set [1] was determined as 1.8%; in data set [2], 7.7%. For the same compound, the figures for the IC50 in [3] and in [4] were 237 µM and 1310 µM, respectively.
The matching figures for `COC(=O)C(Cc1c[nH]c2ccccc12)NC(=O)/C=C/C=C/c1ccc2c(c1)OCO2` (stereo unspecified): 3%, 5.2%, 119 µM and 855 µM.
With `O=C(/C=C/C=C/c1ccc2c(c1)OCO2)NC(Cc1ccc(O)cc1)C(=O)O` (stereo unspecified), the Activity turned out to be 4% in data set [1] and 6% in data set [2]. For the same compound, the values for the IC50 in data set [3] and in [4] were 249 µM and 761 µM, respectively.
Regarding `COC(=O)[C@@H](N)Cc1ccc(O)cc1` [TYROSINE METHYL ESTER], the Activity in [1] is given as 0.3%; in [2], 5%. For the same compound, the IC50 in data set [3] is 1400 µM; in data set [4], 2090 µM.
`COC(=O)C(Cc1ccccc1)NC(=O)/C=C/C=C/c1ccc2c(c1)OCO2` (stereo unspecified): the Activity in data set [1] stood at 4%; in [2], 7%; in data set [5] it was 30%; in data set [6] it was 35%; in [7], 353 mg. Moreover, the IC50 in [3] was 197 µM; in [4] it was 834 µM.
Turning to `CCCCCCCCCCCCCCCCOP(=O)([O-])OCC[N+](C)(C)C` [MILTEFOSINE], the Activity in data set [1] came to 29%; in data set [8], 287 mg; in [2], 35%; in [9] it was 87%; in data set [10], 43%. Moreover, the IC50 was found to be 18 µM in data set [3] and 33 µM in data set [4].
For `COC(=O)C(NC(=O)/C=C/C=C/c1ccc2c(c1)OCO2)C(C)C` (stereo unspecified), the Activity is 3% in data set [1], 3.8% in data set [2], 24% in data set [6] and 516 mg in data set [7]. Besides, the IC50 is 75 µM in [3] and 875 µM in data set [4].
